Data taken from PubChem BioAssay AID1845215 (Molecular Pharmacology Branch, DTP, NCI, 2023).

Test system: SW 1271 complex tumor spheroid viability
Test: Anticancer human tumor SW 1271 cell line growth inhibition;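 also: spheroids exposed to agents for seven days before readout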;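 as to viability, T/C: percent of DMSO vehicle control luminescence so 100% = vehicle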
Conditions: for IC50: curve of first compound; for viability, T/C: stronger effect = lower value
Description: Multicellular complex tumor spheroid response to DNA repair inhibitors in combination with DNA-damaging drugs
This study explores the anticancer activities of DNA-damaging drugs and inhibitors of DNA damage repair, both as single agents and in combinations. Complex tumor spheroids comprised of malignant cells, endothelial cells and mesenchymal stem cells served as an in vitro model for human solid tumors. This model system incorporates physiologically relevant features and patient-derived or established malignant cell lines with clinically relevant genetic alterations from many tumor types. Twenty-six patient-derived or established malignant cell lines were evaluated representing sarcoma, melanoma, small cell lung cancer (SCLC), non-small cell lung cancer (NSCLC), as well as bladder, ovarian and pancreatic cancers. The concentration ranges selected for each drug and investigational agent were based upon clinically achievable concentrations if the clinical Cmax of the agent was known.
Compounds. The drugs and compounds olaparib (NSC753686), talazoparib (NSC767125), berzosertib (NSC777718), elimusertib (NSC800525), nedisertib (NSC802822), VX-984 (NSC792969), AZD-1390 (NSC803789), temozolomide (NSC362856), topotecan (NSC609699), trabectedin (NSC813783), staurosporine (NSC755774), and gemcitabine (NSC613327) were obtained from the National Cancer Institute (NCI) Developmental Therapeutics Program Chemical Repository. The FDA-approved anticancer drug set is available from the Developmental Therapeutics Program at https://dtp.cancer.gov/organization/dscb/obtaining/available_plates.htm. […] The stock solutions were prepared in dimethyl sulfoxide (DMSO, Sigma-Aldrich, St. Louis, MO, cat. D2650) at 400-fold the tested concentration and stored at -70 degrees C. Prior to their use, the stock solutions were diluted in fresh medium and the final DMSO concentration in the assay was 0.25% (v/v). All drugs and investigational agents were tested over a range starting from a high concentration at or near the clinical Cmax and decreasing in half-log increments. If the clinical Cmax for an agent had not been determined, the highest concentration tested was 10 microM.
Cell Lines. The patient-derived cancer cell (PDC) lines: 156681-154-R-J1-PDC, 283228-195-R-J1-PDC, 287954-098-R-J1-PDC, 292921-168-R-J2-PDC, 349418-098-R-PDC, 425362-245-T-J1-PDC, 556581-035-R-J1-PDC, and BL0293-F563-PDC were received from the NCI Patient-Derived Models Repository (PDMR, https://pdmr.cancer.gov). The established cell lines HS-SY-2 (RRID:CVCL_8719), MPNST, and SYO-1 (RRID:CVCL_7146) were obtained from the Sloan Kettering Institute. The alveolar soft parts sarcoma cell line ASPS-1 (RRID:CVCL_S738) was established at the NCI and grown from internal seed stocks. The following established cell lines were purchased from the American Type Culture Collection (ATCC, Manassas, VA): G-401 (ATCC, cat. CRL-1441, RRID:CVCL_0270), SW982 (ATCC, cat. HTB-93, RRID:CVCL_1734), VA-ES-BJ (ATCC, cat. CRL-2138, RRID:CVCL_1785), NCI-H719 (ATCC, cat. CRL-5837, RRID:CVCL_1582), NCI-H196 (ATCC, cat. CRL-5823, RRID:CVCL_1509), NCI-H841 (ATCC, cat. CRL-5845, RRID:CVCL_1595), NCI-H1618 (ATCC, cat. CRL-5879, RRID:CVCL_1480), NCI-H1876 (ATCC, cat. CRL-5902, RRID:CVCL_1503), DMS 114 (ATCC, cat. CRL-2066; RRID:CVCL_1174), NCI-H211 (ATCC, cat. CRL-5824; RRID:CVCL_1529), and SW 1271 (ATCC, cat. CRL-2177, RRID:CVCL_1716). The small cell lung cancer cell line COR-L88 was purchased from Sigma-Aldrich (cat. 92031917-1VL, RRID:CVCL_1141). The non-small cell lung cancer cell lines NCI-H226 (RRID:CVCL_1544) and NCI-H322M (RRID:CVCL_1557) were established at the NCI and grown from internal seed stocks. Pooled donor human umbilical vein endothelial cells (HUVEC, Lonza, cat. CC-2519) and human mesenchymal stem cells (hMSC, Lonza, cat. PT-2501) were purchased from Lonza (Walkersville, MD).
Cell Culture. All cells were maintained in an incubator at 37 degrees C and 5% CO2 with 95% humidity. […]

[1] = second compound 0.003 µM, first compound 0.00949 µM
[2] = second compound 0.003 µM, first compound 0.03 µM
[3] = second compound 0.003 µM, first compound 0.0949 µM
[4] = second compound 0.003 µM, first compound 0.3 µM
[5] = second compound 0.003 µM, first compound 0.949 µM
[6] = second compound 0.003 µM, first compound 3 µM
[7] = second compound 0.00949 µM, first compound 0.00949 µM
[8] = second compound 0.00949 µM, first compound 0.03 µM
[9] = second compound 0.00949 µM, first compound 0.0949 µM
[10] = second compound 0.00949 µM, first compound 0.3 µM
[11] = second compound 0.00949 µM, first compound 0.949 µM
[12] = second compound 0.00949 µM, first compound 3 µM
[13] = second compound 0.03 µM, first compound 0.00949 µM
[14] = second compound 0.03 µM, first compound 0.03 µM
[15] = second compound 0.03 µM, first compound 0.0949 µM
[16] = second compound 0.03 µM, first compound 0.3 µM
[17] = second compound 0.03 µM, first compound 0.949 µM
[18] = second compound 0.03 µM, first compound 3 µM
[19] = second compound 0.0949 µM, first compound 0.00949 µM
[20] = second compound 0.0949 µM, first compound 0.03 µM
[21] = second compound 0.0949 µM, first compound 0.0949 µM
[22] = second compound 0.0949 µM, first compound 0.3 µM
[23] = second compound 0.0949 µM, first compound 0.949 µM
[24] = second compound 0.0949 µM, first compound 3 µM
[25] = second compound 0.3 µM, first compound 0.00949 µM
[26] = second compound 0.3 µM, first compound 0.03 µM
[27] = second compound 0.3 µM, first compound 0.0949 µM
[28] = second compound 0.3 µM, first compound 0.3 µM
[29] = second compound 0.3 µM, first compound 0.949 µM
[30] = second compound 0.3 µM, first compound 3 µM

| Compound | IC50 (second compound 0.003 µM) [nM] | IC50 (second compound 0.00949 µM) [nM] | IC50 (second compound 0.03 µM) [nM] | IC50 (second compound 0.0949 µM) [nM] | IC50 (second compound 0.3 µM) [nM] | viability, T/C [3] [%] | viability, T/C [4] [%] | viability, T/C [5] [%] | viability, T/C [6] [%] | viability, T/C [9] [%] | viability, T/C [10] [%] | viability, T/C [11] [%] | viability, T/C [12] [%] | viability, T/C [15] [%] | viability, T/C [16] [%] | viability, T/C [17] [%] | viability, T/C [18] [%] | viability, T/C [21] [%] | viability, T/C [22] [%] | viability, T/C [23] [%] | other results |
| --- | --- | --- | --- | --- | --- | --- | --- | --- | --- | --- | --- | --- | --- | --- | --- | --- | --- | --- | --- | --- | --- |
| CNCc1ccc(-c2cc(-c3nc(-c4ccc(S(=O)(=O)C(C)C)cc4)cnc3N)on2)cc1 + CC[C@@]1(O)C(=O)OCc2c1cc1n(c2=O)Cc2cc3c(CN(C)C)c(O)ccc3nc2-1 | 39.3 | < 9.49 | < 9.49 | < 9.49 | < 9.49 | 21.3 | 27.2 | 5.87 | 0.11 | 19.9 | 11.5 | 9.07 | 0.1 | 20.2 | 34.2 | 12 | 0.09 | 21.6 | 20.5 | 10.8 | viability, T/C [1]: 84.7%; viability, T/C [2]: 60.7%; viability, T/C [7]: 38.9%; viability, T/C [8]: 29%; viability, T/C [13]: 22.5%; viability, T/C [14]: 23.3%; viability, T/C [19]: 23.2%; viability, T/C [20]: 25.8%; viability, T/C [24]: 0.09%; viability, T/C [25]: 18.1%; viability, T/C [26]: 17%; viability, T/C [27]: 20.4%; viability, T/C [28]: 10.8%; viability, T/C [29]: 1.75%; viability, T/C [30]: 7.62% |
| Cn1ncnc1[C@H]1c2n[nH]c(=O)c3cc(F)cc(c23)N[C@@H]1c1ccc(F)cc1 + CC[C@@]1(O)C(=O)OCc2c1cc1n(c2=O)Cc2cc3c(CN(C)C)c(O)ccc3nc2-1 | < 9.49 | < 9.49 | < 9.49 | < 9.49 | < 9.49 | 21.4 | 24.1 | 23.4 | 21.7 | 28.4 | 25.9 | 26.7 | 17.2 | 24.2 | 25.2 | 25 | 18 | 28.1 | 23.7 | 22 | viability, T/C [1]: 27.6%; viability, T/C [2]: 23.9%; viability, T/C [7]: 26.2%; viability, T/C [8]: 27.6%; viability, T/C [13]: 27.7%; viability, T/C [14]: 28.3%; viability, T/C [19]: 22.6%; viability, T/C [20]: 27.9%; viability, T/C [24]: 11.3%; viability, T/C [25]: 11.1%; viability, T/C [26]: 16.5%; viability, T/C [27]: 11.4%; viability, T/C [28]: 9.66%; viability, T/C [29]: 6.32%; viability, T/C [30]: 3.75% |
| O=C(c1cc(Cc2n[nH]c(=O)c3ccccc23)ccc1F)N1CCN(C(=O)C2CC2)CC1 + CC[C@@]1(O)C(=O)OCc2c1cc1n(c2=O)Cc2cc3c(CN(C)C)c(O)ccc3nc2-1 | < 94.9 | < 94.9 | < 94.9 | < 94.9 | < 94.9 | 34.5 | 42.2 | 40.8 | 27.9 | 27 | 27 | 28.1 | 25.3 | 25 | 25.5 | 29.5 | 37.1 | 34.8 | 26.4 | 28.4 | viability, T/C (second compound 0.003 µM, first compound 9.49 µM): 27.4%; viability, T/C (second compound 0.003 µM, first compound 30 µM): 25.8%; viability, T/C (second compound 0.00949 µM, first compound 9.49 µM): 29.2%; viability, T/C (second compound 0.00949 µM, first compound 30 µM): 28.3%; viability, T/C (second compound 0.03 µM, first compound 9.49 µM): 26.1%; viability, T/C (second compound 0.03 µM, first compound 30 µM): 29.7%; viability, T/C [24]: 27.1%; viability, T/C (second compound 0.0949 µM, first compound 9.49 µM): 28.7%; viability, T/C (second compound 0.0949 µM, first compound 30 µM): 28%; viability, T/C [27]: 16.1%; viability, T/C [28]: 13.4%; viability, T/C [29]: 12.1%; viability, T/C [30]: 10.5%; viability, T/C (second compound 0.3 µM, first compound 9.49 µM): 19%; viability, T/C (second compound 0.3 µM, first compound 30 µM): 8.08% |
